In one data set the test system is IFN-γ and IL-4 secretion. Briefly: IFN-γ and IL-4 secretion of spleen and CLN cells cultured with OVA (sandwich ELISA), C57BL/6 mice. In kind it is in vivo. To be noted: cells cultured with 500 μg/ml OVA for 4 days, one week after final immunization. How it is done:
It was directly investigated whether α-GalCer nasal vaccine adjuvant skews immune response into Th1 or Th2 immune response. To measure the secretions of cytokines, cells were obtained from spleen and cervical lymph node (CLN) a week after the final immunization. The cells ([…]) were cultured with 500 μg/ml of OVA for 4 days. The secretions of IFN-γ and IL-4 in the culture supernatant were measured by using the mouse IFN-γ and IL-4 OptELA set ELISA kit (BD Pharmigen) according to the manufacturer's instruction.
A general note: ELISA stands for enzyme-linked immunosorbent assay.

The subject of data set [1] is OVA-specific antibody responses. Briefly: OVA-specific antibody responses after intranasal co-administration of OVA and αGalCer, Balb/c mice. It counts as in vivo. How it is done:
To investigate whether αGalCer can be used as a strong adjuvant for a nasal vaccine in Balb/c mice, different amounts of αGalCer (0.15, 0.5, 2.0 μg) and 100 μg of OVA were intranasally administered to Balb/c mice by the same manner as described in Example 1, followed by measurement of OVA-specific IgG, OVA-specific IgG1 and IgG2a in serum and OVA-specific IgA responses in the nasal wash and the lung wash.

Data set [2] relates to IFN-γ-producing CD8+ T cells. Briefly: IFN-γ-producing CD8+ T cells by intracellular cytokine staining, Balb/c mice, OVA. It counts as in vivo. To be noted: splenocytes cultured 4 days with 500 μg/ml OVA, with the increase of αGalCer concentration. The procedure:
OVA dose not include an epitope peptide binding to a MHC class I molecule in Balb/c mouse. So, to investigate cytotoxic activity induced by αGalCer adjuvant in the Balb/c mouse, the numbers of IFN-γ-producing CD8+ T cells were measured (FIG. 11). Particularly, the cells (2×10^6 cells/ml) were cultured for 4 days with 500 μg/ml of OVA, to which 1 μl/ml of GolgiPug™ (BD Pharmigen, USA) was added 6 hours before termination of the culture. Then, staining was performed by using FITC-conjugated CD3 mAb (Clone 145-2C11, Biolegend Inc, USA), PE-conjugated CD8 mAb (Clone 53-6.7, Biolegend Inc, USA) and APC-conjugated IFN-γ mAb (Clone XMG1.2, Biolegend Inc, USA). Intracellular staining was performed with BD Cytofix/Cytoperm Plus™ (BD Pharmigen, USA) according to the manufacturer's instruction, and the stained cells were analyzed with FACSCalibur (BD Bioscience, USA) and CellQuest software (BD Bioscience, USA).

Data set [3] deals with PR8 HA-specific antibody responses. Further details: species or system Balb/c mice. The conditions noted are these: mouse, in vivo.
The subject of data set [4] is influenza virus A/PR/8/34. Further details: species or system Balb/c mice. The conditions noted are these: mouse, in vivo.
Data set [5] relates to β-galactosidase-specific antibody response. The data set can be described thus: β-galactosidase-specific antibody response after intranasal Ad-LacZ with αGalCer. In kind it is in vivo. The conditions noted are these: Balb/c mice; 10^6 pfu Ad-LacZ + 0.125 μg αGalCer intranasal, twice at two-week intervals; vs vehicle alone or Ad-LacZ alone. How it is done: (§1) Balb/c mice were immunized with 10^6 pfu of replication-deficient live adenovirus harboring beta-galactosidase gene (Ad-LacZ) (Viromed, Korea) alone or together with 0.125 μg of αGalCer by the intranasal administration, two times at two-week intervals. One week after the final immunization, the nasal wash, the lung wash and serum were separated, by the same manner as described in Example 1, to measure β-galactosidase-specific antibody response. In addition, to measure CTL activity, spleen cells were stimulated by 2.5 μg/mL of β-galactosidase for 5 days and IFN-γ-producing CD8+ T cells were examined by intracellular cytokine staining according to the procedure as described in Example <4-2>.

Data set [6] deals with IFN-γ-producing CD8+ T cells. Briefly: IFN-γ-producing CD8+ T cells after β-galactosidase stimulation of spleen cells (Ad-LacZ immunization). In kind it is in vivo. The conditions noted are these: Balb/c mice; Ad-LacZ + 0.125 μg αGalCer intranasal; spleen cells stimulated with 2.5 μg/mL β-galactosidase for 5 days. The procedure:
as §1

Data set [7] has as its system OT1 cells (OVA specific CD8+ T cells). Briefly: Intracellular IL-2 and IFN-γ of OT1 cells after OVA257-264 peptide stimulation. It counts as in vivo, mouse. To be noted: OVA + 2.0 μg αGalCer intranasal vs OVA alone; 5 μM OVA257-264 peptide for 6 hours. How it is done: To confirm whether the activated T-cells were differentiated into fully functional CTL, 2×10^6/ml of cells were further stimulated with 5 μM of OVA257-264 peptide for 6 hours, by the same manner as described in Example 4, and then intracellular IL-2 and IFN-γ levels were measured by using APC-conjugated IL-2 (Clone JES6-5H4, Biolegend Inc., USA) and APC-conjugated IFN-γ mAb (Clone XMG1.2 Biolegend Inc., USA).

Data set [8] relates to immune cells from spleen and CLN. The data set can be described thus: Immune cell proliferation, [3H]-thymidine incorporation of spleen and CLN cells cultured with inactivated PR8. In kind it is in vivo. The conditions noted are these: Balb/c mice; inactivated PR8 + αGalCer intranasal; cells cultured with inactivated PR8 for 3 days, [3H]-thymidine 18 hrs. How it is done:
(§2) To examine the role of αGalCer as an adjuvant of a killed virus, influenza virus A/PR/8/34 (PR8), which was inactivated with formalin, was used as an antigen to examine the anti-virus immune response. Balb/c mice were immunized with indicated amounts (1 μg, 10 μg) of inactivated PR8 alone or together with αGalCer by the intranasal administration twice at two-week intervals. Two weeks after the final immunization, the mice were sacrificed and following experiments were performed.
Single cells separated from the spleen and CLN of the sacrificed mice were cultured with inactivated PR8 for 3 days and [^3H]-thymidine was added and further incubated for 18 hrs. As cells were being proliferated, the level of incorporated [^3H]-thymidine was measured by LSC.
Background: Incorporation of labelled thymidine or its analogues reports DNA synthesis.

Data set [9] has as its system P815 tumor cells infected with live PR8 virus. Briefly: 51Cr release assay for CTL activity against PR8-infected P815 target cells. In kind it is in vivo. To be noted: Balb/c mice; inactivated PR8 with or without αGalCer intranasal; splenocytes, 51Cr-labeled PR8-infected P815 targets, 6 hours. The procedure: as §2
Single cells, separated from the spleen of the sacrificed mice, were cultured with stimulator cells for 5 days. To obtain stimulator cells, single cells were taken from the spleen of a naïve Balb/c mouse, which was irradiated with γ-ray, resulting in the inactivation of the cells. Then, the inactivated cells were infected with a live PR8 virus. After culturing splenocytes with stimulator cell for five days, effector cells were three-fold diluted serially, followed by further culture with ^51Cr-labeled target cells for 6 hours. Then, the amounts of ^51Cr […] in the culture supernatant were measured. The target cells were prepared by infecting P815 tumor cells (purchased from ATCC) with live PR8 virus and labeled with ^51Cr.

For data set [10] the following is noted: rodents and apes; cited from earlier work.
The conditions of data set [11]: dose escalation study, 50-4800 μg/m^2; cited from earlier work.
The mark [12] stands for this setting: αGalCer (0.15, 0.5, 2.0 μg) + 100 μg OVA intranasal, vs vehicle alone or OVA alone.

Entries after “also recorded” stand apart in the source; their conditions may differ.

Turning to `CCCCCCCCCCCCCCCCCCCCCCCCCC(=O)N[C@@H](CO[C@H]1O[C@H](CO)[C@H](O)[C@H](O)[C@H]1O)[C@H](O)[C@H](O)CCCCCCCCCCCCCC` [αGalCer, alpha-galactosylceramide], the “secretions of IFN-γ and IL-4 in spleen and CLN” value in the data set on IFN-γ and IL-4 secretion is given as “significantly increased”. For the same compound, the “IgG antibody level in serum, comparison of αGalCer doses” value in [1] (0.5 μg of αGalCer intranasally coadministered with OVA) is recorded as “highest level of IgG antibody”. In [1] (setting [12]), the “OVA-specific IgA responses in the nasal wash and the lung wash” value is “higher OVA-specific IgA responses”; the “OVA-specific IgG response in serum” value is reported as “higher OVA-specific IgG response”. The “OVA-specific IgG1 and IgG2a titers” value in data set [1] (αGalCer + OVA intranasal, serum) is “increases”. The “numbers of IFN-γ-producing CD8+ T cells, relation to αGalCer concentration” value in [2] is reported as “decreased”. Moreover, the “PR8 HA-specific IgG antibody in serum” value in [3] is recorded as “high level”. The “weight loss recovery after virus infection” value in data set [4] was “rapid rate of weight loss recovery”. In data set [5], the “β-galactosidase-specific IgG antibody in serum” value was “higher levels”; the “β-galactosidase-specific S-IgA antibody in the nasal wash and the lung wash” value is listed as “higher levels”. The “numbers of IFN-γ-producing CD8+ T cells” value in data set [6] was “significant increase”. In addition, in data set [7], the “levels of OT1 cells secreting IL-2 and IFN-γ” value was “higher”. The “proliferation of immune cells from spleen and CLN” value in [8] was “significantly increased”. In addition, the “target cell-specific lytic activity” value in [9] is “observed only in mice concurrently treated with αGalCer; also recorded: strong lytic activity”. Also, in data set [10], the toxicity entry was “seems not to induce toxicity”. Moreover, the dose-limiting toxicity entry in [11] is given as “does not cause dose-limiting toxicity”.
